Two compounds from patent US6299861A, “Ipratropium bromide enantiomer with prolonged duration of effect” (Boehringer Ingelheim KG, priority 1995, dated 2001) can be followed below.

In the assay the test system is acetylcholine-induced bronchospasm. Put plainly: Inhibition of acetylcholine-induced bronchospasm in the anaesthetised dog after administration by inhalation. The conditions noted are these: aerosol, FIG. 1; for peak inhibition of acetylcholine-induced bronchospasm: 5 μg L-(-)-enantiomer (curve B) or 10 μg racemate (curve A); for time at which peak inhibition of bronchospasm is reached / time until inhibition of bronchospasm has fallen back to initial/starting level: 5 μg L-(-)-enantiomer or 10 μg racemate.

Method: 5 μg of the pure L-(-)-enantiomer and, accordingly, 10 μg of the racemate were administered.

Regarding `CC(C)[N+]1(C)C2CCC1CC(OC(=O)C(CO)c1ccccc1)C2` (single isomer, unassigned) [BIIH 150 BR, (endo, syn)-(-)-3-(3-hydroxy-l-oxo-2-phenylpropoxy)-8-methyl-8-(1-methylethyl)-8-azoniabicyclo [3,2,1]octane], the “peak inhibition of acetylcholine-induced bronchospasm” value was 60%, the “time at which peak inhibition of bronchospasm is reached” value is “about 10 minutes” and the “time until inhibition of bronchospasm has fallen back to initial/starting level” value amounted to 180 min.

Consider `CC(C)[N+]1(C)C2CCC1CC(OC(=O)C(CO)c1ccccc1)C2` (stereo not drawn) [Ipratropium bromide], for which the “peak inhibition of acetylcholine-induced bronchospasm” value was “about 55%”, the “time at which peak inhibition of bronchospasm is reached” value is given as “about 10 minutes” and the “time until inhibition of bronchospasm has fallen back to initial/starting level” value stood at 60 min.
